Results from patent US20220213030A1, “AMINOGUANIDINE HYDRAZONES AS RETROMER STABILIZERS USEFUL FOR TREATING NEUROLOGICAL DISEASES” (OSPEDALE SAN RAFFAELE SRL, priority 2019, published 2022).

How the values were obtained:
[1] = Brain uptake of compound 2a in C57BL6J mice (LC-MS/MS); assay type: in vivo; settings: 10 mg/Kg/day intraperitoneal; 1, 7, 15 and 30 days; saline perfused
Experimental: We run a pharmacokinetic assay on C57BL6J mice that received daily intraperitoneal injections of compound 2a (10 mg/Kg/day). Mice were sacrificed after 1, 7, 15 and 30 days saline perfused to avoid the CNS contamination of compounds contained in blood circulation and brains used for the determination of compound 2a levels by mass spectrometry.
Healthy mice were daily injected with vehicle or compound 2a (10 mg/kg) and sacrificed after 1, 7, 15 and 30 days. Upon saline perfusion, brains were dissociated from skulls, carefully weighted and rapidly stored in dry ice. Then, brains (˜400 mg) were checked for the presence of Compound 2a. […] After the extraction, each biological sample was re-suspended in 60 μl of LC/MS grade water and 5 μl analyzed by LC-MS/MS using the UPLC 1290 (Agilent Technologies) coupled to the TripleTOF 5600+ mass spectrometer (SCIEX) in positive mode. A Waters ACQUITY UPLC BEH HILIC column (2.1×10 mm, 1.7 μm) was used for the chromatographic separation through a gradient of solvent A (ACN+0.1% FA) and solvent B (H2O+0.1% FA). Calibration curves were constructed by plotting the peak area versus the corresponding concentrations using MultiQuant 2.1 software (SCIEX).

[2] = system: lysosomes in Neuro2a cells receiving G93A plasmids; test: Lyso-tracker analysis of lysosomes in G93A-transfected Neuro2a; assay type: cell-based, mouse; settings: 10 μM, 24 hours of starvation
Experimental: We next determined whether a reduction of VPS35 levels in Neuro2a cells could affect lysosomal homeostasis, mimicking what we and others observed in the ALS mouse model (Cheng 2018). We transfected Neuro2a cells with plasmids encoding the Sh56 RNAi to downregulate VPS35. After 24 hours of starvation, we analyzed the lysosomes using the Lyso-tracker. We observed an enlarged and abnormal distribution of lysosomes in cells with VPS35 interference by Sh56 (FIG. 15A-C). […] We asked whether G93A plasmids would also result in similar lysosomal alterations. We transfected Neuro2a cells with plasmids encoding G93A, with or without compound 2a (10 μM). After 24 hours of starvation, we monitored the lysosomes in such cells with the Lyso-tracker.

VPS35 = VPS35 (Mus musculus, UniProt Q9EQH3+Q9QZ88); test: Cycloheximide (CHX) chase assay of VPS35 degradation in Neuro2a; assay type: cell-based; parameters: endogenous in cells; host or cells: Neuro2a; settings: 10 μM for 24 hours, then CHX 10 μg/mL up to 8 h
Experimental: Compound 2a increases the stability of the retromer complex in vitro. We further validated this concept by measuring VPS35 degradation rates by a cycloheximide (CHX) chase assay. Neuro2a cells received vehicle or lead 2a (10 μM) for 24 hours, then CHX was added to the medium, and VPS35 levels were measured by western blot. […] As is the case with R55 (Mecozzi, Berman et al. 2014), compound 2a should not influence the transcription levels of CRC genes in Neuro2a cells.
Cycloheximide (CHX) assay was done on Neuro2a cells seeded in 6-well plates and incubated with compound 2a (10 μM) or vehicle for 24 hours. We next added CHX (Sigma) at 10 μg/mL and cells were collected at 0, 2, 4 and 8 hours for the time-course assay of VPS35 levels.

G93A mice [3] = test: Histopathology of sciatic nerves of G93A mice; assay type: in vivo, mouse; settings: 10 mg/kg daily, day 100
Source text: We next performed histopathological analysis of sciatic nerves from WT control and G93A mice receiving compound 2a or vehicle. […] Using Luxol Fast Blue (LFB) staining, which binds lipoproteins of the myelin sheath, we analyzed myelination in sagittal sections of these nerves. […] Therefore, we observed a reduction of fibers degeneration and demyelination in sciatic nerves of G93A mice treated with compound 2a.
Comparative studies on sciatic nerves were done on tissues removed upon saline perfusion and rapidly fixed with 2% glutaraldehyde in 0.12 mol/L phosphate buffer, post fixed with 1% osmium tetroxide, and embedded in Epon (Fluka). Semi-thin sections (1 μm thick) were stained with toluidine blue and examined by light microscopy (Olympus BX51). Digitized not overlapping semi-thin section images from corresponding levels of the sciatic nerve were obtained with a digital camera (Leica DFC300F) using a 40X objective. Quantifications were done on at least 5 acquired images from each mouse. The numbers of degenerating nerve fibers were quantified using ImageJ software (National Institutes of Health, Bethesda, Md.).

G93A mice [4] = test: Motor neuron counts in ventral horn of lumbar spinal cord of G93A mice; assay type: in vivo, mouse; settings: 10 mg/kg daily, day 100
Experimental: Mice were sacrificed at day 100, and lumbar SCs assayed for studying MNs cell morphology and numbers. We initially scored NeuN^+ neurons in the ventral horn of the SC to monitor bona fide motor neurons.
Sections from mice (frozen cryo sections) or glass covers containing cells were washed three times in PBS 1× (Lonza, 5 min each), and incubated in the following blocking mix: PBS 1×/FBS 10% (Invitrogen), BSA 1 mg/mL (Sigma), TritonX100 0.1% (Sigma), for 1 h at room temperature. Antibodies were diluted in blocking mix and incubated at +4° C. overnight according manufacturer's instructions. The following day, sections were rinsed in PBS and fluorescent secondary antibodies—i.e. never deriving from the species from which the primary antibodies are derived—(Alexafluor conjugated) diluted in blocking mix, were used according to the manufacturer's instructions. Slides were incubated in Hoechst 33342 (Sigma) for nuclei counterstaining. When necessary, we performed antigens retrieval by boiling samples in 10 mM sodium citrate (pH 6) for 5 min. […]
Mice were maintained under pathogen-free conditions at San Raffaele Hospital mouse facility (Milan, Italy). […] Animal cohort numbers were determined by power analysis based on preliminary results.

Structure (SMILES): N=C(N)NN=Cc1cccc(C=NNC(=N)N)c1 [Compound 2a, 1,3-Bis-amino guanidine phenyl hydrazone]
- compound levels in the brain (ability to access the CNS) [1]: significant amounts of compound 2a in the brain
- enlarged lysosomes (Lyso-tracker-covered areas) [2]: significantly reverted this phenotype
- VPS35 degradation after CHX (VPS35): protected VPS35 from degradation
- degenerating peripheral nerve fibers in sciatic nerves (G93A mice [3]): significant protection of peripheral nerve fibers
- demyelination (Luxol Fast Blue staining) (G93A mice [3]): substantial attenuation of the demyelination process
- myelin integrity (MBP and NF-M labelling) (G93A mice [3]): preserved the integrity of myelin
- numbers of NeuN+ motor neurons in the ventral horn (G93A mice [4]): significantly higher numbers of motor neurons than vehicle-treated G93A mice
